Data taken from the supplement of paper PMC10307832.

How the values were obtained:
Assay in all cases: relative viability (nuclei count vs DMSO), 5 days (fraction); higher = more cells survive
[1] = compound: C1CNCCC1C2=CC(=NN2)C3=CC=NC=C3 + CC(=O)c1c(C)c2cnc(Nc3ccc(N4CCNCC4)cn3)nc2n(C2CCCC2)c1=O [Palbociclib] (partner 0.5 µM)
Outline: (§1)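 After 5 days of treatment, lung cancer cells in 1536-well plates were fixed and stained in a single step (final 0.05% Triton X-100, 1% formaldehyde, 1 ug/ml Hoechst) and their nuclei counted on 4× images. Treatment had been applied by pin tool the day after seeding as one drug alone or as a fixed anchor-drug dose with five library-drug doses (not always all listed) in √10 steps. Relative viability is the nuclei count of treated wells divided by that of vehicle wells, and values are medians of duplicate plates.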

[2] = compound: C[C@@H](N)c1ccc(C(=O)Nc2ccnc3[nH]ccc23)cc1 + O=C(c1cc(Cc2n[nH]c(=O)c3ccccc23)ccc1F)N1CCN(C(=O)C2CC2)CC1 [Olaparib] (partner 8 µM)
Outline: as §1

[3] = compound: C[C@@H](N)c1ccc(C(=O)Nc2ccnc3[nH]ccc23)cc1 + CS(=O)(=O)CCNCc1ccc(-c2ccc3ncnc(Nc4ccc(OCc5cccc(F)c5)c(Cl)c4)c3c2)o1 [Lapatinib] (partner 2 µM)
Outline: as §1

[4] = compound: C1CNCCC1C2=CC(=NN2)C3=CC=NC=C3 + CS(=O)(=O)N1CCN(Cc2cc3nc(-c4cccc5[nH]ncc45)nc(N4CCOCC4)c3s2)CC1 [Pictilisib] (partner 1 µM)
Outline: as §1

Cell Line | relative viability ([1]; first compound 0.08 µM) | relative viability ([1]; first compound 0.8 µM) | relative viability ([1]; first compound 2.53 µM) | relative viability ([1]; first compound 8 µM) | relative viability ([2]; first compound 0.04 µM) | relative viability ([2]; first compound 0.1265 µM) | relative viability ([2]; first compound 0.4 µM) | relative viability ([2]; first compound 1.265 µM) | relative viability ([2]; first compound 4 µM) | relative viability ([3]; first compound 0.04 µM) | relative viability ([3]; first compound 0.1265 µM) | relative viability ([3]; first compound 0.4 µM) | relative viability ([3]; first compound 1.265 µM) | relative viability ([3]; first compound 4 µM) | relative viability ([4]; first compound 0.08 µM) | relative viability ([4]; first compound 0.8 µM) | relative viability ([4]; first compound 2.53 µM) | relative viability ([4]; first compound 8 µM)
NCI-H727 | 0.627 | 0.685 | 0.66 | 0.646 | 0.64 | 0.738 | 0.8 | 0.771 | 0.742 | 0.863 | 0.957 | 1.02 | 0.513 | 0.989 | 0.373 | 0.407 | 0.505 | 0.575
HARA | 0.284 | 0.282 | 0.281 | 0.28 | 1.02 | 0.907 | 1.32 | 0.966 | 0.819 | 0.829 | 0.904 | 0.79 | 0.803 | 0.702 | 0.419 | 0.421 | 0.437 | 0.402
NCI-H2228 | 0.822 | 0.991 | 0.787 | 0.863 | 0.535 | 0.726 | 0.714 | 0.917 | 0.771 | 1.18 | 1.09 | 1.2 | 1.17 | 0.868 | 0.388 | 0.483 | 0.409 | 0.544
LCLC-97TM1 | 0.206 | 0.295 | 0.251 | 0.194 | 0.416 | 0.429 | 0.342 | 0.526 | 0.342 | 1.53 | 1.45 | 1.65 | 0.83 | 1.36 | 0.275 | 0.241 | 0.283 | 0.175
LC-2-ad | 0.532 | 0.548 | 0.462 | 0.437 | 0.744 | 0.693 | 0.646 | 0.647 | 0.478 | 0.899 | 0.922 | 1 | 0.967 | 0.661 | 0.43 | 0.469 | 0.625 | 0.48
SK-LU-1 | 0.418 | 0.348 | 0.43 | 0.397 | 0.459 | 0.446 | 0.436 | 0.321 | 0.376 | 0.847 | 0.85 | 0.906 | 0.828 | 0.779 | 0.515 | 0.499 | 0.686 | 0.644
EKVX | 0.38 |  | 0.412 | 0.395 | 0.993 | 1.14 | 1.03 | 0.923 | 0.727 | 0.223 | 0.224 | 0.242 | 0.224 | 0.215 | 0.42 | 0.516 | 0.42 | 0.447
HCC-827 | 0.498 | 0.437 | 0.534 | 0.499 |  | 0.764 | 0.834 | 0.739 | 0.542 | 0.233 | 0.203 | 0.168 | 0.246 | 0.196 | 0.981 | 0.918 | 0.919 | 0.891
NCI-H650 | 0.334 | 0.352 | 0.4 | 0.406 |  | 0.385 | 0.433 |  | 0.325 | 0.626 | 0.837 | 0.859 |  | 0.696 | 0.897 | 0.992 | 0.939 | 0.904
CAL-12T | 0.535 | 0.0415 | 0.566 | 0.572 | 0.702 | 0.882 | 0.815 | 0.841 | 0.724 | 0.801 | 0.811 | 0.886 |  | 0.875 | 0.619 | 0.549 | 0.481 | 0.616
NCI-H2342 | 0.486 | 0.545 | 0.587 | 0.556 | 0.454 | 0.469 | 0.405 | 0.481 | 0.388 |  |  |  |  |  |  |  |  | 
SW 900 | 0.551 |  | 0.584 | 0.561 | 1.03 | 0.918 | 1.21 | 0.883 | 1.08 |  |  |  |  |  |  |  |  | 
IA-LM |  |  |  |  | 0.824 | 0.996 | 0.914 | 1.11 | 0.914 | 0.779 | 0.954 | 0.865 | 1.27 | 0.957 | 0.374 | 0.482 | 0.371 | 0.477
EPLC-272H | 0.343 | 0.359 | 0.326 | 0.334 | 0.729 | 1.17 | 0.808 | 0.703 | 0.394 | 1 | 0.914 | 1.1 |  | 0.668 | 0.384 | 0.361 | 0.285 | 0.337
A-427 | 0.486 | 0.559 | 0.529 | 0.49 | 0.698 | 0.817 | 0.762 | 0.589 | 0.649 | 0.968 | 1.07 | 1 |  | 0.885 | 0.707 | 0.891 | 0.685 | 0.8
NCI-H647 | 0.354 | 0.387 | 0.49 | 0.458 | 0.668 | 0.615 | 0.602 | 0.478 | 0.474 | 0.961 | 1.07 | 1.16 | 1.06 | 0.901 | 0.388 |  | 0.427 | 0.381
NCI-H1975 | 0.629 | 0.342 | 0.668 | 0.645 | 0.771 | 0.757 | 0.78 | 0.67 | 0.523 | 0.833 | 0.765 | 0.922 | 0.88 | 0.546 | 0.325 | 0.305 | 0.331 | 0.307
NCI-H358 | 0.14 | 0.126 | 0.143 | 0.136 | 0.625 | 0.628 | 0.69 | 0.696 | 0.479 | 0.482 | 0.363 | 0.435 | 0.465 | 0.366 | 0.323 | 0.376 | 0.357 | 0.422
PC-3 [JPC-3] | 0.547 | 0.495 | 0.558 | 0.541 | 0.968 | 1.22 | 1.13 | 1.23 | 1.01 | 0.538 | 0.545 | 0.505 | 0.529 | 0.536 | 0.719 | 0.721 | 0.738 | 0.766
